According to patent publication US20230338454A1, “FORSYTHIA SUSPENSA COMPONENT AND OPTIONAL PANAX GINSENG COMPONENT AND THE APPLICATION” (priority 2020, published 2023):
Like-named read-outs stand apart in the source and are kept apart here. Marks after values point to notes of the source that are not given here.

Key:
HCMV AD169 strain = test: Inhibitory effect on HCMV in vitro (MEC, therapeutic index); assay type: cell-based, human cytomegalovirus; details: HCMV AD169, 100 times TCD50, 10 days of culture
Description: Human embryonic lung fibroblast cell strain (purchased from Sino Best Biological Technology Co., Ltd.). The cells were cultured and subcultured according to the conventional method.
HCMV AD169 strain was purchased from American Type Culture Collection (ATCC).
Cells were inoculated in a 96-well plate, allowed to grow into monolayers, and inoculated with a virus challenge of 100 times TCD50. Starting from TD0, each drug was diluted stepwise according to 10-fold gradient to prepare 5 concentrations, with 4 wells set for each concentration. In addition, 4 wells of normal cell control and 4 wells of virus control were set.

[1] = test system: Human embryonic lung fibroblast cell strain
[2] = test system: carrageenan-induced paw swelling; test: Carrageenan-induced paw swelling in rats; assay type: in vivo, Wistar rats; details: 100 mg/kg, sublingual intravenous injection
Description: Each group was administered by sublingual intravenous injection. Before the study, the normal volume of the right hind limb was measured by the capillary magnification method. To avoid errors, the measurement position should be fixed and performed by one person before and after administration. The average of the two measurements was taken as the normal volume of the right hind limb of the rats prior to administration. […] The inter-group t-test was performed by the difference percentage (swelling rate) of the plantar volume before and after the inflammation induction, and the differences among the groups were compared.

Adenovirus (AdV) = test: Effect of drugs on viral cytopathic effect, effective antiviral rate (ER%); assay type: cell-based; details: Vero cells, 100TCID50, drug at maximum non-toxic concentration, 72 h, MTT
[3] = test system: Coxsackievirus A16 (CoxA16); test: as above; assay type: cell-based; details: Vero cells, 100TCID50, drug at maximum non-toxic concentration, 72 h, MTT
Coxsackievirus B3 (CVB3) = test: as above; assay type: cell-based; details: Vero cells, 100TCID50, drug at maximum non-toxic concentration, 72 h, MTT
enterovirus 71 (EV71) = test: as above; assay type: cell-based; details: Vero cells, 100TCID50, drug at maximum non-toxic concentration, 72 h, MTT
[4] = test system: Herpes simplex virus type 1 (HSV-1); test: as above; assay type: cell-based; details: Vero cells, 100TCID50, drug at maximum non-toxic concentration, 72 h, MTT
Vero cells = test: Cytotoxicity test of drugs on Vero cells (MTT); details: 72 h
parainfluenza virus [5] = assay type: in vivo, Kunming mice; details: mice infected with parainfluenza virus
influenza virus [6] = assay type: in vivo, Kunming mice
influenza virus [7] = assay type: in vivo, Kunming mice; details: lung suspension, mice infected with influenza virus, 5 days
parainfluenza virus [8] = assay type: in vivo, Kunming mice; details: […], 5 days
Influenza virus [9] = test: Effect of drugs on viral cytopathic effect, effective antiviral rate (ER%); assay type: cell-based
[10] = test system: respiratory syncytial virus (RSV); test: as above; assay type: cell-based; details: Vero cells, 100TCID50, drug at maximum non-toxic concentration, 72 h, MTT
Parainfluenza virus [11] = test: as above; assay type: cell-based; details: Vero cells, 100TCID50, drug at maximum non-toxic concentration, 72 h, MTT
[12] = test system: fever induced by beer yeast; test: Fever induced by beer yeast in rats; assay type: in vivo, Wistar rats; details: 100 mg/kg
[13] = test system: sweat secretion of rat paw; test: Sweat secretion of rat paw (staining method); assay type: in vivo, Wistar rats; details: of 10 rats; 35.0 mg/kg subcutaneous
From the text: There are sweat glands on the plantar skin of rats, so the changes in sweat secretion can be observed by the purple reaction between the iodine-starch mixture and the sweat. Five hundred Wistar rats, half male and half female, weighing 120-150 g, were taken in the study. […] The rats were placed in a homemade rat-fixing bag to expose both hind limbs. The dirt on the right paw was gently scrubbed with a cotton swab dipped in absolute ethanol. Except for the pilocarpine solution, which was given by subcutaneous injection, other groups were administered by gavage. One hour after administration (30 min after administration in the pilocarpine group), the sweat secreted from the right paw of rats in each group was gently cleaned with a dry cotton swab before the study and during struggling. The right paw was coated with Wotan-[…] reagent A solution (dissolve 2 g of iodine in 100 mL of absolute ethanol) and then coated with Wotan-[…] reagent B solution (mix 50 g of soluble starch and 100 mL of Ricinus conununis oil well) after reagent A was fully absorbed. […] At the end of the test, a rank-sum test was used to analyze the differences among the groups.

[14] = test system: epithelial cells of plantar sweat glands of rats; test: Sweat secretion of rat paw (histomorphology observation method); assay type: in vivo, Wistar rats; details: 30 min after 35.0 mg/kg subcutaneous
From the text: After sweat glands activation in rats, besides the increase of sweat secretion, the morphology of the epithelial cells of the sweat glands changes accordingly. Under the optical microscope, the increase and enlargement of vacuoles in the epithelial cells of the sweat glands are observed. Under an electron microscope, the enlarged vacuoles appear to be due to swelling and rupture of mitochondria, enlargement of fusion and secretory vesicles in the epithelial cells of sweat glands. The secretory activity of sweat glands could be understood by observing the histomorphology of the epithelial cells of plantar sweat glands of rats. Three hundred Wistar rats, half male and half female, weighing 120-160 g. were taken in the study. […] Except for the pilocarpine solution given by subcutaneous injection, other groups were administered by gavage. One hour after the control group was given 0.5% carboxymethyl cellulose, 30 min after the positive drug group was given pilocarpine, and 1 h after the administration of forsythin, ginsenoside Rg3 and the panax ginseng-forsythia suspensa composition, the right hind limb was immediately cut off at the level of the ankle joint. […] Observations were made under an optical microscope for changes in the epithelial cells of the plantar sweat glands of rats in each group, mainly the incidence of vacuoles. The statistical processing was performed by X^2 test, and differences among the groups were compared. The above study was repeated for 3 times.

[15] = 19.5 mg/kg/day by gavage, 5 days
[16] = mice infected with influenza virus, 19.5 mg/kg/day by gavage, 5 days

## COc1ccc(C2OCC3C(c4ccc(OC5OC(C(=O)O)C(O)C(O)C5O)c(O)c4)OCC23)cc1OC [9-Hydroxy-phillygenin glucuronide, 9-hydroxy phillygenin-8-O-β-D-glucuronide]
HCMV AD169 strain
  Minimum effective concentration MEC: 0.4 mg/L
[1]
  Maximum non-toxic concentration TD0: 40 mg/L

## COc1cc(C2OCC3C(c4ccc5c(c4)OCO5)OCC23)ccc1OC1OC(C(=O)O)C(O)C(O)C1O [33, 34-methylenedioxy phillygenin-8-O-β-D-glucuronide]
HCMV AD169 strain
  Minimum effective concentration MEC: 0.4 mg/L
[1]
  Maximum non-toxic concentration TD0: 40 mg/L

## COc1cc(C2OCC3C(c4ccc(OC5OC(C(=O)O)C(O)C(O)C5O)c(OC)c4)OCC23)ccc1O [33-Hydroxy-phillygenin glucuronide, 33-hydroxy phillygenin-8-O-β-D-glucuronide]
HCMV AD169 strain
  Minimum effective concentration MEC: 0.3 mg/L
[1]
  Maximum non-toxic concentration TD0: 30 mg/L

## CC(=O)Oc1ccccc1C(=O)O [Aspinn]
[2]; 15 min after inflammation induction
  Swelling rate (%) 15 min: 8.90±6.70^∗ %
[2]; 30 min after inflammation induction
  Swelling rate (%) 30 min: 15.6±12.2^∗ %
[2]; 60 min after inflammation induction
  Swelling rate (%) 60 min: 20.3±10.9^∗ %
[2]; 120 min after inflammation induction
  Swelling rate (%) 120 min: 21.6±12.1^∗∗ %
[2]; 180 min after inflammation induction
  Swelling rate (%) 180 min: 26.1±21.1^∗∗ %
[2]; 240 min after inflammation induction
  Swelling rate (%) 240 min: 26.1±16.3^∗∗ %
[2]; 300 min after inflammation induction
  Swelling rate (%) 300 min: 34.9±14.6^∗ %
[2]; 360 min after inflammation induction
  Swelling rate (%) 360 min: 31.9±12.2^∗ %

## Nc1nc(O)c2ncn(COC(CO)CO)c2n1 [Ganciclovir (GCV), Ganciclovir, reference compound]
HCMV AD169 strain
  Minimum effective concentration MEC: 10 mg/L
[1]; human
  Maximum non-toxic concentration TD0: 10 mg/L

## CCOC(=O)C1=C[C@@H](OC(CC)CC)[C@H](NC(C)=O)[C@@H](N)C1 [Oseltamivir Phosphate, reference compound]
Adenovirus (AdV)
  Effective Antiviral Rates (ER%) ADV: 10.31%
[3]
  Effective Antiviral Rates (ER%) CoxA16: 2.95%
Coxsackievirus B3 (CVB3)
  Effective Antiviral Rates (ER%) CVB3: 1.64%
Enterovirus 71 (EV71)
  Effective Antiviral Rates (ER%) EV71: 51.86%
[4]
  Effective Antiviral Rates (ER%) HSV-I: 66.56** %
Vero cells
  Half toxic concentration (TC50): 832 µg/mL
  Maximum non-toxic concentration (TC0): 0.28 g/L
Parainfluenza virus [5]; [15]
  Lung index (x̅ ±S): 1.243±0.054
  Lung index Inhibitory rate (%): 21.85%
Parainfluenza virus [5]; P < 0.05 or P < 0.01
  Lung index compared with the infection model group, in words: decreased significantly
Influenza virus [6]; [16]
  Lung index (x̅ ±S): 1.178±0.066
  Lung index Inhibitory rate (%): 19.84%
Influenza virus [6]; mouse, in vivo
  Lung index compared with the infection model group, in words: decreased significantly
Influenza virus [7]; 19.5 mg/kg/day by gavage
  Hemagglutinin titer (InX): 20.50±1.123
  Inhibitory rate (%) of hemagglutination titer: 36.73%
Parainfluenza virus [8]; 19.5 mg/kg/day by gavage
  Hemagglutinin titer (InX): 22.05±1.055
  Inhibitory rate (%) of hemagglutination titer: 33.40%
Influenza virus [9]; Vero cells, 100TCID50, drug at maximum non-toxic concentration, 72 h, MTT
  Effective Antiviral Rates (ER%) Influenza virus: 81.76** %
[10]
  Effective Antiviral Rates (ER%) RSV: 37.60%
Parainfluenza virus [11]
  Effective Antiviral Rates (ER%) Parainfluenza virus: 94.52** %

## CC(=O)Nc1ccc(O)cc1 [Paracetamol, reference compound]
[12]; 1 h post-dose
  Body temperature change (%) (antipyretic percentage), time post-dose 1 h: -2.07±0.54^∗∗ %
  Body temperature, time post-dose 1 h: 38.66±0.59 °C
[12]; 2 h post-dose
  Body temperature change (%) (antipyretic percentage), time post-dose 2 h: -3.27±0.77^∗∗∗ %
  Body temperature, time post-dose 2 h: 38.19±0.59 °C
[12]; 3 h post-dose
  Body temperature change (%) (antipyretic percentage), time post-dose 3 h: -3.80±1.43^∗∗∗ %
  Body temperature, time post-dose 3 h: 37.98±0.19 °C
[12]; 4 h post-dose
  Body temperature change (%) (antipyretic percentage), time post-dose 4 h: -4.15±1.59^∗∗∗ %
  Body temperature, time post-dose 4 h: 37.84±0.32 °C

## CC[C@@H]1C(=O)OC[C@@H]1Cc1cncn1C [Pilocarpine, reference compound]
[13]
  Number of animals with sweat spots of each grade at 1 min after application of solution B: grade +: 1 animals
  Number of animals with sweat spots of each grade at 1 min after application of solution B: grade ++: 3 animals
  Number of animals with sweat spots of each grade at 1 min after application of solution B: grade +++: 1 animals
  Number of animals with sweat spots of each grade at 1 min after application of solution B: grade +++ (fifth grade column): 5 animals
  Number of animals with sweat spots of each grade at 1 min after application of solution B: grade -: 0 animals
  Number of animals with sweat spots of each grade at 5 min after application of solution B: grade +: 1 animals
  Number of animals with sweat spots of each grade at 5 min after application of solution B: grade ++: 2 animals
  Number of animals with sweat spots of each grade at 5 min after application of solution B: grade +++: 1 animals
  Number of animals with sweat spots of each grade at 5 min after application of solution B: grade +++ (fifth grade column): 6 animals
  Number of animals with sweat spots of each grade at 5 min after application of solution B: grade -: 0 animals
[14]
  Number of vacuolar sweat glands (number): 57 number
  Vacuolation rate (%): 27.40^∗∗∗ %

## NC(=O)c1ncn([C@@H]2O[C@H](CO)[C@@H](O)[C@H]2O)n1 [Ribavirin, reference compound]
Adenovirus (AdV)
  Effective Antiviral Rates (ER%) ADV: 0.43%
[3]
  Effective Antiviral Rates (ER%) CoxA16: 0.70%
Coxsackievirus B3 (CVB3)
  Effective Antiviral Rates (ER%) CVB3: 13.44%
Enterovirus 71 (EV71)
  Effective Antiviral Rates (ER%) EV71: 4.25%
[4]
  Effective Antiviral Rates (ER%) HSV-I: 62.92** %
Influenza virus [7]; 58.5 mg/kg/day by gavage
  Hemagglutinin titer (InX): 21.91±1.050
  Inhibitory rate (%) of hemagglutination titer: 32.39%
Parainfluenza virus [8]; 58.5 mg/kg/day by gavage
  Hemagglutinin titer (InX): 23.22±1.091
  Inhibitory rate (%) of hemagglutination titer: 29.86%
Influenza virus [9]
  Effective Antiviral Rates (ER%) Influenza virus: 57.49** %
[10]
  Effective Antiviral Rates (ER%) RSV: 50.08* %
Parainfluenza virus [11]
  Effective Antiviral Rates (ER%) Parainfluenza virus: 91.56** %
